Measured values taken from patent publication US20090209510A1, “Novel Method of Treating Hyperlipidemia” (TAKEDA PHARMACEUTICAL COMPANY LIMITED, priority 2005, published 2009).
Each block holds one compound with its values, some of them ahead of it.

How the values were obtained:
Hartley guinea pigs [1] = details: plasma, atorvastatin 50 mg/kg alone, orally once a day 7 days, average ± standard error (N = 12)
Procedure: On the morning of the following day after the 7th administration, blood was collected, and the concentrations of the alanine aminotransferase and the aspartate aminotransferase, which are the markers of hepatic toxicity, in plasma were measured.

Hartley guinea pigs [2] = assay: Influence of Compound X and atorvastatin on liver pathological change (Example 4); type: in vivo, guinea pig; details: for Total cholesterol: guinea pigs on 0.05% cholesterol/10% corn oil diet, 30 mg/kg alone, orally once a day 14 days, average ± standard error (N = 12)
Procedure: Furthermore, the liver was removed and pathological evaluation was conducted.

Hartley guinea pigs [3] = assay: Lowering effect on plasma cholesterol by use in combination of Compound X and atorvastatin (Example 2); type: in vivo, guinea pig; details: guinea pigs on 0.05% cholesterol/10% corn oil diet, orally once a day 14 days, average ± standard error (N = 12)
Hartley guinea pigs [4] = assay: Influence of Compound X and cerivastatin on change of muscle-deviated enzymes (Example 6); type: in vivo, guinea pig; details: for increases in the creatinine phosphokinase and myoglobin in plasma: cerivastatin 1 mg/kg alone or with Compound X 30 mg/kg
Hartley guinea pigs [5] = assay: Lowering effect on plasma cholesterol by triple combination of Compound X, simvastatin and ezetimibe (Example 7); type: in vivo, guinea pig; details: guinea pigs on 0.05% cholesterol/10% corn oil diet, Compound X 30 mg/kg alone, orally once a day 14 days; average ± standard error (N = 6)
Hartley guinea pigs [6] = assay: Lowering effects on plasma cholesterol by use in combination of Compound X and simvastatin (Example 3); type: in vivo, guinea pig; details: guinea pigs on 0.05% cholesterol/10% corn oil diet, orally once a day 14 days, average ± standard error (N = 12)
Wistar Fatty rats = assay: Lowering effect on plasma triglyceride by use in combination of Compound X and atorvastatin (Example 1); type: in vivo, rat; details: 30 mg/kg alone, orally once a day for 8 days, overnight fasting, average ± standard error (N = 6)
[7] = plasma, cerivastatin 1 mg/kg alone, orally once a day 14 days, average ± standard error (N = 16)

Alanine aminotransferase (Hartley guinea pigs [1]): 48.9 ± 9.7 I.U./L
Aspartate aminotransferase (Hartley guinea pigs [1]): 169.0 ± 39.1 I.U./L
Compound: CC(C)c1c(C(=O)Nc2ccccc2)c(-c2ccccc2)c(-c2ccc(F)cc2)n1CC[C@@H](O)C[C@@H](O)CC(=O)O [Atorvastatin, atorvastatin]
Total cholesterol (Hartley guinea pigs [2]): 32.9 ± 1.5 mg/dL
Total cholesterol level (Hartley guinea pigs [3]; 3 mg/kg alone): 46.1 ± 3.3 mg/dL
Total cholesterol level (Hartley guinea pigs [3]; 10 mg/kg alone): 37.4 ± 4.1 mg/dL
Total cholesterol level (Hartley guinea pigs [3]; 30 mg/kg alone): 33.5 ± 2.8 mg/dL

increases in the creatinine phosphokinase and myoglobin in plasma (Hartley guinea pigs [4]; 14 days): Significant increases
CK (creatinine phosphokinase) (Hartley guinea pigs [4]; [7]): 4070 ± 800 U/L
Mb (myoglobin) (Hartley guinea pigs [4]; [7]): 25.7 ± 2.6 ng/mL
Compound: COCc1c(C(C)C)nc(C(C)C)c(/C=C/[C@@H](O)C[C@@H](O)CC(=O)O)c1-c1ccc(F)cc1 [Cerivastatin, cerivastatin]
TC (Hartley guinea pigs [4]; cerivastatin 1 mg/kg alone, orally once a day 14 days, average ± standard error (N = 16)): 13.2 ± 0.8 mg/dL

Compound: COc1cccc([C@H]2O[C@H](CC(=O)N3CCC(CC(=O)O)CC3)C(=O)N(CC(C)(C)COC(C)=O)c3ccc(Cl)cc32)c1OC [Compound X, N-[[(3R,5S)-1-(3-acetoxy-2,2-dimethylpropyl)-7-chloro-5-(2,3-dimethoxyphenyl)-2-oxo-1,2,3,5-tetrahydro-4,1-benzoxazepin-3-yl]acetyl]piperidine-4-acetic acid]
cholesterol-lowering effect (Hartley guinea pigs [4]; Compound X 30 mg/kg added to cerivastatin 1 mg/kg, 14 days): slightly increasing
increases in the creatinine phosphokinase and myoglobin in plasma (Hartley guinea pigs [4]; 14 days): significantly ameliorated the increases
Total cholesterol level (Hartley guinea pigs [5]): 43.5 ± 4.1 mg/dL
Total cholesterol (Hartley guinea pigs [2]): 40.1 ± 3.1 mg/dL
Image of the liver cell necrosis (Hartley guinea pigs [2]; guinea pigs, each drug 30 mg/kg, alone or in combination, 14 days): not recognized
Total cholesterol level (Hartley guinea pigs [3]; 30 mg/kg alone): 44.4 ± 4.1 mg/dL
Total cholesterol level (Hartley guinea pigs [6]; 30 mg/kg alone): 40.2 ± 4.7 mg/dL
Plasma triglyceride value (Wistar Fatty rats): 376.5 ± 22.0 mg/dL

Compound: CCC(C)(C)C(=O)O[C@H]1C[C@@H](C)C=C2C=C[C@H](C)[C@H](CC[C@@H]3C[C@@H](O)CC(=O)O3)[C@H]21 [Simvastatin, simvastatin]
Total cholesterol level (Hartley guinea pigs [6]; 10 mg/kg alone): 41.0 ± 3.6 mg/dL
Total cholesterol level (Hartley guinea pigs [6]; 30 mg/kg alone): 43.4 ± 2.2 mg/dL
Total cholesterol level (Hartley guinea pigs [6]; 100 mg/kg alone): 31.7 ± 2.6 mg/dL
